Source: US20170119892A1, “REFILLABLE DRUG DELIVERY DEVICES AND METHODS OF USE THEREOF” (President and Fellows of Harvard College, priority 2014, published 2017)

Columns and labels:
[1] = test system: MDA-MB-231 xenograft tumors; assay: Xenograft tumor study with drug refilling; format: in vivo, J:Nu mice; conditions: 120 ug doxorubicin per animal IV weekly
Experimental: Tumors were created by injecting 10^6 MDA-MB-231 cells (American Type Culture Collection, VA) combined with Matrigel (BD Biosciences, CA) to a total volume of 200 μL (100 μL PBS and 100 μL Matrigel) into the hind limbs of 8 week old J:Nu (Foxn1^nu/Foxn1^nu) mice (Jackson Labs, ME). 35 days following tumor inoculation tumors were injected with alginate gels. 20 mg/mL alginate conjugated to DNA (thioT-SH or unconjugated) was mixed with doxorubicin (1.6 mg drug per mL of gel), then crosslinked with 4% wt/v CaSO4 (1.22 M) and then 50 μL of gel were injected into tumors with a 23-gauge needle. 2, 3, 4, and 5 weeks after initial tumoral gel injection, mice were injected retro-orbitally with 100 μL 0.5% DNA-conjugated alginate carrying doxorubicin (5% oxidized alginate, thioA-SH, Dye-750, 160 ug Dox-hydrazide=120 μg Dox). Throughout the study, tumor area was measured twice per week with digital calipers in two dimensions and the product of the two dimensional values was used to approximate tumor area. Mice were sacrificed on day 49. […]
Immunocompromised mice bearing MDA-MB-231 xenograft tumors were injected intra-tumor with phosphorothioate DNA-conjugated alginate gels releasing doxorubicin (80 ug per animal) or bolus doxorubicin in PBS. […] The ability of targeted therapy to reduce tumor size was assessed by monitoring the change in tumor size in the three days following each IV administration.

[2] = test system: Alginate conjugated to (T)20 oligonucleotides, ionically crosslinked with calcium to form a gel; assay: Binding of fluorescently-labeled oligonucleotides to DNA-conjugated calcium-alginate gels in vitro; conditions: phosphate buffer with 1 mM calcium chloride
[3] = Alginate circulation time in the blood; format: in vivo, C57/B6 mice
Experimental: C57/B6 mice were injected retro-orbitally with 100 μL 0.5% fluorescent alginate (unoxidized alginate, Dye-750). Mice were shaved on the front and back and imaged with an IVIS Spectrum in vivo imager (ex: 745, em: 820) over 30 days. Shaving was repeated before every image collection. Fluorescence in the blood was measured through quantification of fluorescence in the snout area.
Efficient blood-based refilling of drug payloads relies on sufficient circulation lifetimes that allow payloads to encounter and bind to the primary device. The circulation time of alginate (285 KDa, 44 nm hydrodynamic radius (Rh)) conjugated to a near-IR probe (FIG. 6A) was analyzed following intravenous (IV) administration to mice. […] With a long circulation time, alginate can serve as an efficient intra-vascular drug carrier with the capability of extravasating and interacting with the primary drug delivery device.

## COc1cccc2c1C(=O)c1c(O)c3c(c(O)c1C2=O)C[C@@](O)(C(=O)CO)C[C@@H]3O[C@H]1C[C@H](N)[C@H](O)[C@H](C)O1 [doxorubicin]
[1]
  change in tumor size in the three days following each IV administration: continued to grow

## (T)20: fluorescently-labeled TTTTTTTTTTTTTTTTTTTT-FAM oligonucleotide, SEQ ID NO: 5
[2]
  binding of fluorescently-labeled oligonucleotides to gel surface: little binding

## (A)20: fluorescently-labeled AAAAAAAAAAAAAAAAAAAA-FAM oligonucleotide, SEQ ID NO: 6
[2]
  binding of fluorescently-labeled oligonucleotides to gel surface: bound to the gel surface in a sequence-specific manner

## alginate
[3]; IV administration to mice
  circulatory half-life: about seven
[3]; IV administration to mice, blood fluorescence measured at snout
  remained in circulation: at least 14 days
[3]; two days after injection
  organ accumulation (imaging of individual organs): accumulation in the lungs, liver, spleen, and to a lesser extent in the kidneys
